Read-outs that look alike come from different tables or passages of the source.
How the values were obtained:
HIV = type: cell-based; conditions: for At least 1x log reduction seen in p24 assay?: Table 19b, yes/no
[1] = target: SARS E protein ion channel (Severe acute respiratory syndrome coronavirus, UniProt P59637); type: biochemical, SARS-CoV
SARS-CoV E protein = SARS-CoV E protein (Severe acute respiratory syndrome coronavirus, UniProt P59637); type: cell-based
human coronavirus OC43 = test: microbe, parasite or virus in culture; type: cell-based; conditions: Betacoronavirus 1, OC43, MRC5, 120 h, MRC-5 cells, 5 days post infection
[2] = test system: porcine respiratory coronavirus (PRCV) strain AR310; test: PRCV plaque assay in ST cells; type: cell-based; conditions: Alphacoronavirus 1; PRCV plaques in ST cells
bovine coronavirus (BCV) = test: BCV plaque assay in MDBK cells; type: cell-based; conditions: Betacoronavirus 1; BCV plaques in MDBK cells
EAV (strain Bucyrus) = test: EAV plaque reduction assay in BHK-21 cells; type: cell-based; conditions: Equine arteritis virus; EAV plaques in BHK-21 cells
Protocol: To determine the antiviral activity of compounds against EAV replication (strain Bucyrus; ATCC VR-796), an assay measuring reduction in the number of plaques formed in monolayers of EAV infected BHK-21 cells (ATCC CCL-10) was developed: […] Plates were subsequently incubated at 37° C. […] Plaques were counted in all wells and the percentage reduction in plaque number compared to solvent control was calculated. Measurements were performed in duplicate to quadruplicate wells.

Vpu protein = Vpu protein (Human immunodeficiency virus type 1 group M subtype B, UniProt P05919); conditions: for Vpu Inhibition (score/# of times tested): halo of growth score between zero and six, XL1-blue E. coli with pPL-Vpu, no adenine, 37° C.
Vpu protein, sequence (P05919 whole entry): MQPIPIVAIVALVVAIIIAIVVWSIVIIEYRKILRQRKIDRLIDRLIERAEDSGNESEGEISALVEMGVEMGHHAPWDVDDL

MHV (strain MHV-A59) [3] = conditions: L929 cells
229E-CoV E-protein = 229E-CoV E-protein (Human coronavirus 229E, UniProt P19741); test: Bacterial bio-assay for 229E-CoV E-protein; conditions: halo of growth score; E. coli expressing E protein at 37° C.
229E-CoV E-protein, sequence (P19741 whole entry): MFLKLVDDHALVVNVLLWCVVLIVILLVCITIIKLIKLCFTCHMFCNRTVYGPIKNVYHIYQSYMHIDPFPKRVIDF

MHV (strain MHV-A59) [4] = test: microbe, parasite or virus in culture; conditions: Murine coronavirus, L929, read-out: Percent reduction in Plaque number/# experiments
[5] = test system: SARS-CoV (Hong Kong strain); type: cell-based, SARS coronavirus; conditions: for Titre (% control): 48 hours; for Average TCID50 (×10^6): 48 hours post infection
Dengue 1 strain Hawaii = test: Dengue cytoproliferation assay in LLC-MK2 cells (Alamar Blue); type: cell-based, Dengue virus; conditions: 7 days
[6] = Table 19a, rank among 12 compounds, 1 = highest score

SARS E protein ion channel, sequence (P59637 whole entry, looked up): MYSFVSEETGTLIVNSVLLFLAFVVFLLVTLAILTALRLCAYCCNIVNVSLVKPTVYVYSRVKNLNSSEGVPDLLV
SARS-CoV E protein, sequence (P59637 whole entry, looked up): as above

| Compound | At least 1x log reduction seen in p24 assay? (HIV) | SARS E protein Inhibition (score/# of times tested) (SARS-CoV E protein) | inhibition at 2.5 µM (human coronavirus OC43) | EC50 [2] | EC50 (bovine coronavirus (BCV)) | Bacterial assay rank order (Vpu protein; [6]) | Bacterial assay rank order (Vpu protein; Table 19b) | Vpu Bacterial score (Vpu protein; Table 19b) | Vpu Inhibition (score/# of times tested) (Vpu protein) | Percent reduction in Plaque number/# experiments (MHV (strain MHV-A59) [3]; 1 uM) | Percent reduction in Plaque number/# experiments (MHV (strain MHV-A59) [3]; 10 uM) | Percent reduction in Plaque number/# experiments (MHV (strain MHV-A59) [3]; 20 uM) | 229E E protein Inhibition (score) (229E-CoV E-protein) | inhibition at 1 µM (MHV (strain MHV-A59) [4]) | further results |
| --- | --- | --- | --- | --- | --- | --- | --- | --- | --- | --- | --- | --- | --- | --- | --- |
| N=C(N)NC(=O)/C=C/c1cccc(Br)c1 [(3-Bromocinnamoyl)guanidine] | yes | 3.15/27 score | 100% | 11.2 µM | 3 µM | 1 | 1 | 4.3 | 4.3/24 score | 39/3% | 90/3% | 95/2% | 1.7 score |  | Percent of Positive Control (HIV; Drug Conc. 0.625 μM): 116%; Percent of Positive Control (HIV; Drug Conc. 1.25 μM): 59%; Percent of Positive Control (HIV; Drug Conc. 2.5 μM): 9%; Percent of Positive Control (HIV; Drug Conc. 5 μM): 1%; Percent of Positive Control (HIV; Drug Conc. 10 μM): 3%; % Reduction of average current by 100 μM [1]: 87 ± 11%; IC50 (EAV (strain Bucyrus)): 10 µM |
| N=C(NC(=O)CCc1ccccc1)NC(=O)CCc1ccccc1 [N,N′-Bis(3-phenylpropanoyl)guanidine, N,N-Bis(3-phenylpropanoyl)guanidine] |  |  |  |  |  |  |  |  | 0.1/2 score |  | 30/4% | 41/3% | 0.3 score | -8% |  |
| N=C(NC(=O)CCc1ccccc1)Nc1ccccc1 [N-(3-phenylpropanoyl)-N′-phenylguanidine] | no | 1.57/2 score |  | 19 µM | 156 µM | 9 | 9 | 2.2 | 2.21/3 score | 43/1% | 65/1% | 80/1% | 0.1 score |  |  |
| N=C(NC(=O)c1ccc2cc(O)ccc2c1)Nc1ccccc1 [N-(6-Hydroxy-2-napthoyl)-N′-phenylguanidine] |  | 1.35/3 score |  |  |  |  |  |  | 2.06/2 score |  | 39/1% | 43/1% |  | -5% |  |
| Cc1cccc(/C=C/C(=O)NC(=N)N)c1 [3-methylcinnamoylguanidine] | yes | 1.00/1 score | 100% | 1.43 µM |  | 3 | 3 | 3.4 | 3.4/2 score | 39/1% | 88/1% | 90/1% | 0.5 score |  |  |
| CC(C)(C)c1ccccc1/C=C/C(=O)NC(=N)N [2-t-butylcinnamoylguanidine] |  | 1.86/1 score | 4% |  |  |  |  |  | 2.13/2 score | 37/1% | 98/2% |  | 3.9 score |  | IC50 (EAV (strain Bucyrus)): 1 µM |
| N=C(N)NC(=O)/C=C/c1ccco1 [(2-Furanacryloyl)guanidine] |  | 0.82/2 score |  |  |  |  |  |  | 0.94/2 score |  | 63/2% | 67/2% |  | -3% |  |
| N=C(N)NC(=O)Cc1ccc2ccccc2c1 [2-(2-napthyl)acetoylguanidine] | no | 0.71/1 score |  | 120 µM | 99 µM | 11 | 11 | 1.2 | 1.19/2 score | 23/1% | 20/2% | 52/1% | 0.1 score |  |  |
| N=C(N)NC(=O)Cc1cccc2ccccc12 [2-(1-napthyl)acetoylguanidine] |  | 1.50/1 score |  |  |  |  |  |  | 1.56/2 score | 11/1% | 02/1% |  | 0.8 score |  | inhibition at 20 µM (MHV (strain MHV-A59) [4]): -19% |
| CCCCC/C=C/c1cccc(/C=C/C(=O)NC(=N)N)c1 [3-(trans-hept-1-en-1-yl)cinnamoylguanidine] |  | 1.71/1 score |  |  |  |  |  |  | 0.81/2 score |  |  |  |  | -6% | inhibition at 10 µM (MHV (strain MHV-A59) [4]): 23% |
| N=C(N)NC(=O)/C=C/c1cccc2ccccc12 [trans-3-(1-napthyl)acryloylguanidine] | yes | 3.38/2 score | 100% | 19.1 µM | 13 µM | 5.5 | 5.5 | 2.9 | 2.9/3 score | 34/3% | 86/3% | 95/2% | 3.7 score |  | % Reduction of average current by 100 μM [1]: 66 ± 2%; reduction in virus titre ([5]; 2 μM): approximately 50%; decrease in virus titre ([5]; 10 uM): approximately 80%; Titre (% control) ([5]; Compound Concentration 2 uM): 46 % control; Average TCID50 (×10^6) ([5]; Compound Concentration 2 uM): 2.45 ×10^6; Titre (% control) ([5]; Compound Concentration 10 uM): 22 % control; Average TCID50 (×10^6) ([5]; Compound Concentration 10 uM): 1.15 ×10^6; IC50 (EAV (strain Bucyrus)): 7.5 µM; Antiviral Percent of Negative Control (Dengue 1 strain Hawaii; Drug Conc. 0.625 μM): 77.7%; Antiviral Percent of Negative Control (Dengue 1 strain Hawaii; Drug Conc. 1.25 μM): 73.7%; Antiviral Percent of Negative Control (Dengue 1 strain Hawaii; Drug Conc. 2.5 μM): 38.7%; Antiviral Percent of Negative Control (Dengue 1 strain Hawaii; Drug Conc. 5 μM): 12.4%; Antiviral Percent of Negative Control (Dengue 1 strain Hawaii; Drug Conc. 10 μM): 6.8% |
| COc1ccc2cc(C(=O)NC(=N)N)ccc2c1 [6-methoxy-2-naphthoylguanidine] | yes | 3.13/3 score | 47% | 0.04 µM | 9 µM | 5.5 | 5.5 | 2.9 | 2.9/4 score | 34/3% | 56/3% | 88/3% | 1.4 score |  | % Reduction of average current by 100 μM [1]: 92 ± 16%; Titre (% control) ([5]; Compound Concentration 2 uM): 118 % control; Average TCID50 (×10^6) ([5]; Compound Concentration 2 uM): 6.35 ×10^6; Titre (% control) ([5]; Compound Concentration 10 uM): 111 % control; Average TCID50 (×10^6) ([5]; Compound Concentration 10 uM): 5.95 ×10^6 |
| N=C(N)NC(=O)/C=C/c1cccc(C2=CCCCC2)c1 [3-(cyclohex-1-en-1-yl)cinnamoylguanidine] |  | 3.75/1 score |  |  |  |  |  |  | 2.5/2 score |  | 2/2% |  | 2.4 score | -19% |  |
| N=C(N)NC(=O)C1CC1c1ccccc1 (stereo not drawn) [(trans-2-Phenylcyclopropanecarbonyl)guanidine] | no | 1.34/3 score | 71% | 17.2 µM | 109 µM | 12 | 12 | 0.4 | 0.4/2 score | 31/2% | 64/2% | 77/2% | 0.8 score |  |  |
